Assay results as given in patent US8513233B2, “Pyrimidinyl-propionic acid derivatives and their use as PPAR agonists” (Shanghai Institute of Materia Medica, CAS, priority 2007, dated 2013).
Where two headings read alike, the source gives them in different places. Each block holds one compound with its values, some of them ahead of it.

Legend:
[1] = test system: MCF-7; assay: Growth inhibition, modified MTT assay, MCF-7; type: cell-based; details: Homo sapiens, MCF7; MCF-7, MTT, mean of 3 independent tests
Method: (§1) The growth inhibition was evaluated by the modified MTT assay. Briefly, the cells were seeded at 1×10^4 cells/well in 96-well plates (Falcon, Calif., USA), and incubated for 24 h in […] culture media with 10% FCS. The media were then replaced by serum-free medium. After 24 h, the media were placed in triplicate with grade concentrations of compounds. As controls, the cells were cultivated in DMEM/F12 only. The cells were then treated by MTT (Sigma, USA) assay, […] (5 g/L) for 4 h. After the removal of the supernatant, the purple-blue sediment was dissolved in 100 μL/well DMSO, and the optical densities were read on the multi-well scanning spectrophotometer (Labsystems Dragon, Finland) at 492 nm (A492). The growth inhibition rate (GIR) of the treated cells was calculated using Equation: GIR(%)={1−[A490/A490(control)]}×100% The results were also converted to IC50 (the compound concentration required for 50% growth inhibition of tumor cells), which were calculated by using the sigmoidal fitting model by the Origin 7.0 software (OriginLab, Northampton, Mass., USA). The mean IC50 was determined from the results of 3 independent tests.

[2] = test system: T24; assay: Growth inhibition, modified MTT assay, T24; type: cell-based; details: Homo sapiens, T-24, mean of 3 independent tests
Method: as §1

[3] = test system: SPC-A1; assay: Growth inhibition, modified MTT assay, SPC-A1; type: cell-based; details: SPCA1, mean of 3 independent tests
Method: as §1

[4] = test system: HepG2; assay: Growth inhibition, modified MTT assay, HepG2; type: cell-based; details: Homo sapiens, mean of 3 independent tests
Method: as §1

[5] = target: T1, PPAR-γ (Homo sapiens, UniProt P37231); assay: Transient transfection and transcription assay (luciferase reporter, U2OS cells); type: cell-based; details: 24 h treatment
T1 construct: expressed in transfected cells; host or cells: U2OS cells, transiently transfected with pcDNA3.1 expression vectors (FuGene6)
T1 sequence (P37231 1-505): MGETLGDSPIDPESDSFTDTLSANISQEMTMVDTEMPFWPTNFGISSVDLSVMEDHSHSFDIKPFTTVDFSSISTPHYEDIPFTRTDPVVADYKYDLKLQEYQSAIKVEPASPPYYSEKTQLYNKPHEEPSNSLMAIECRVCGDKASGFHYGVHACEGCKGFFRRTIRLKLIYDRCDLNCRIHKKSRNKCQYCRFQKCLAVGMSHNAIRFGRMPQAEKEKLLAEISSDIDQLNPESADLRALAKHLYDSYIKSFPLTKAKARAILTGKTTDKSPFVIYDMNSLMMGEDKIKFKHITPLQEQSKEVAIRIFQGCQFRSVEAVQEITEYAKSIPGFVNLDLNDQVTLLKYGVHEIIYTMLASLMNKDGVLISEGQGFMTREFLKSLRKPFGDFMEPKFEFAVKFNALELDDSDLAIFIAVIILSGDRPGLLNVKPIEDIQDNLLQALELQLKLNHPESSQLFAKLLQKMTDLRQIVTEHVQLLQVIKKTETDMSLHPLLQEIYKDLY
T1 sequence (P19793 1-462 partner): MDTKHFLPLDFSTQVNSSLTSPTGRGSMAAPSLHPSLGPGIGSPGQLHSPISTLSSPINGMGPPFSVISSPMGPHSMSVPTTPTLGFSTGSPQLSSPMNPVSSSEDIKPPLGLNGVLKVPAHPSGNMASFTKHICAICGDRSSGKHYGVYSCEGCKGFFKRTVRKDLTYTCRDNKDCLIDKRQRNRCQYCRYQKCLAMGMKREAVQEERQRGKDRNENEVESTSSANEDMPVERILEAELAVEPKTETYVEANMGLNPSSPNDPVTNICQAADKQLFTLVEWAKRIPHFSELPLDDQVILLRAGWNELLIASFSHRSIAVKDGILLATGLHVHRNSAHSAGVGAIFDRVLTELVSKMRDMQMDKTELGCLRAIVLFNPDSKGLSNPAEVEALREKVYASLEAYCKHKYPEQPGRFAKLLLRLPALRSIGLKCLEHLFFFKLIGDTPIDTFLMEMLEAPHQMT
Method: cDNAs for Human RXR, PPAR were obtained by RTPCR from the human liver or adipose tissues. Amplified cDNAs were cloned into pcDNA3.1 expression vector and the inserts were confirmed by sequencing. U2OS cells were cultured in McCoy's 5A with 10% heat-inactivated fetal bovine serum in a humidified 5% CO2 atmosphere at 37° C. Cells were seeded in 96-well plates the day before transfection to give a confluence of 50-80% at transfection. A total of 60 ng of DNA containing 10 ng of hRXR, 10 ng of pCMV Gal, 10 ng of nuclear receptor expression vectors and 30 ng of the corresponding reporters were cotransfected per well using FuGene6 transfection reagent according to the manufacturer's instructions. […] The final concentration of DMSO in culture medium was 0.1%. […] Luciferase activity was monitored using the luciferase assay kit according to the manufacturers instructions. Light emission was read in a Labsystems Ascent Fluoroskan reader. To measure galactosidase activity to normalize the luciferase data, 50 IL of supernatant from each transfection lysate was transferred to a new microplate. Galactosidase assays were performed in the microwell plates using a kit from Promega and read in a microplate reader. Compounds were tested in five concentrations ranging from 0.01 to 10 μM. […] The results were expressed as means (SD).

[6] = test system: Han:SPRD rat model of ADPKD; type: in vivo; details: for 24-hour urine protein level / Blood urea nitrogen (BUN) levels: Treatment Group 10 mg/kg.d
Description: Han: SPRD rats were obtained from our own breeding colony that is derived from animals that were kindly provided to us by Mayo Clinic (Rochester Minn.), All animal procedures and care were taken at the SPF-level Laboratory Animal Center of the Second Military Medical University (Shanghai, […].). Carboxymethyl cellulose sodium (CMC-Na) was purchased from Shanghai Chemical Reagent Company. Automatic clinical chemistry analyzer (Hitachi Clinical Analyzer 7080).
2.1 Experimental protocol: A total of 48 Han:SPRD rats (about ⅔ rats were Cy/+, ⅓ were +/+, homozygote rats −/− die within 3 weeks), all at 3 weeks of age, were randomized into 2 groups: negative control group and treatment groups (10 mg/kg.d compound 2). The rats of negative control group were given 1% CMC-Na, while the rats of treatment group were given 10 mg/kg.d compound 2 (suspended in 1% CMC-Na) by daily gavage from 3 weeks through 11 weeks of age, removal +/+ rats in both groups, then general animal feeds were given to rats in control group, the rats of treatment group were given animal feeds added by 0.03% of compound 2 (approximately 10 mg/kg. d), both groups were maintained with free access to water. Long-term observation of the rats until they died, record the length of their life span. 2.2 Physiological and biochemical indexes: since the day of treatment, general state and body weight of rats were examined and recorded every month, Blood (2 ml) was obtained from the rat orbital venous plexus using a glass capillary tube, then centrifuged for 10 minutes at 4000 rpm to collect serum for biochemical analysis including blood urea nitrogen (BUN), ALT, AST, serum lipids et. Urine was collected using Metabolic Cage for 24-hour urine protein analysis. 3.

[7] = after 2 months of treatment, P<0.001

- IC50 [1]: 45.2 µM
- melting point: 137 to 138 °C
- IC50 [2]: > 50 µM
- IC50 [4]: > 50 µM
SMILES: CC(Cc1ccc(Oc2cc(N3CCN(Cc4ccncc4)CC3)nc(N)n2)cc1)(Oc1ccccc1)C(=O)O (centres unmarked) [Compound 40, 3-{4-[2-Amino-6-(4-pyridin-4-ylmethyl-piperazin-1-yl)-pyrimidin-4-yloxy]-phenyl}-2-methyl-2-phenoxy-propionic acid]
- IC50 [3]: 46.5 µM

- IC50 [1]: 38.8 µM
- melting point: 141 to 143 °C
- IC50 [2]: > 50 µM
- IC50 [4]: > 50 µM
SMILES: CC(Cc1ccc(Oc2cc(N3CCN(Cc4cccnc4)CC3)nc(N)n2)cc1)(Oc1ccccc1)C(=O)O (centres unmarked) [Compound 39, 3-{4-[2-Amino-6-(4-pyridin-3-ylmethyl-piperazin-1-yl)-pyrimidin-4-yloxy]-phenyl}-2-methyl-2-ph enoxy-propionic acid]
- IC50 [3]: 43.5 µM

- IC50 [1]: 47.6 µM
- EC50 [5]: 3.89 µM
- IC50 [2]: 40.6 µM
- IC50 [4]: > 50 µM
SMILES: CC(Cc1ccc(Oc2cc(N3CCN(Cc4ccco4)CC3)nc(N)n2)cc1)(Oc1ccccc1)C(=O)O (centres unmarked) [Compound 37, 3-{4-[2-Amino-6-(4-furan-2-ylmethyl-piperazin-1-yl)-pyrimidin-4-yloxy]phenyl}-2-methyl-2-phenoxy-propionic acid]
- IC50 [3]: 37.6 µM

Continued, compound first:

SMILES: CC(Cc1ccc(Oc2cc(N3CCN(Cc4ccc(F)cc4)CC3)nc(N)n2)cc1)(Oc1ccccc1)C(=O)O (centres unmarked) [Compound 7, 3-{4-{2-Amino-6-[4-(4-fluoro-benzyl)-piperazin-1-yl]-pyrimidin-4-yloxy}-phenyl}-2-methyl-2-phenoxy-propionic acid]
- IC50 [1]: > 50 µM
- melting point: 107 to 109 °C
- IC50 [2]: > 50 µM
- IC50 [3]: > 50 µM
- IC50 [4]: > 50 µM

SMILES: CC(Cc1ccc(Oc2cc(N3CCN(Cc4ccccc4)CC3)nc(N)n2)cc1)(Oc1ccccc1)C(=O)O (racemic) [Compound 2, rac-3-{4-[2-Amino-6-(4-benzyl-piperazin-1-yl)-pyrimidin-4-yloxy]-phenyl}-2-methyl-2-phenoxy-propionic acid]
- IC50 [1]: 55 µM
- EC50 [5]: 6.76 µM
- IC50 [2]: 72 µM
- IC50 [3]: 65.5 µM
- 24-hour urine protein level ([6]; 1 month): 62.3 ± 6.3 mg/24 h
- Blood urea nitrogen (BUN) levels ([6]; 1 month): 11.55 ± 0.57 mmol/L
- 24-hour urine protein level ([6]; 2 month): 64.1 ± 5.0 mg/24 h
- Blood urea nitrogen (BUN) levels ([6]; 2 month): 12.36 ± 0.77 mmol/L
- 24-hour urine protein level ([6]; 3 month): 67.1 ± 4.9 mg/24 h
- Blood urea nitrogen (BUN) levels ([6]; 3 month): 12.58 ± 1.35 mmol/L
- 24-hour urine protein level ([6]; 4 month): 66.3 ± 4.6 mg/24 h
- Blood urea nitrogen (BUN) levels ([6]; 4 month): 12.79 ± 1.41 mmol/L
- 24-hour urine protein level ([6]; 5 month): 67.1 ± 3.6 mg/24 h
- Blood urea nitrogen (BUN) levels ([6]; 5 month): 13.10 ± 1.64 mmol/L
- 24-hour urine protein level ([6]; 6 month): 66.0 ± 8.6 mg/24 h
- Blood urea nitrogen (BUN) levels ([6]; 6 month): 13.26 ± 1.05 mmol/L
- 24-hour urine protein level ([6]; 7 month): 64.4 ± 2.8 mg/24 h
- Blood urea nitrogen (BUN) levels ([6]; 7 month): 12.60 ± 1.40 mmol/L
- 24-hour urine protein level ([6]; 8 month): 70.4 ± 8.8 mg/24 h
- Blood urea nitrogen (BUN) levels ([6]; 8 month): 13.16 ± 1.73 mmol/L
- 24-hour urine protein level ([6]; 9 month): 67.8 ± 3.2 mg/24 h
- Blood urea nitrogen (BUN) levels ([6]; 9 month): 12.87 ± 2.72 mmol/L
- 24-hour urine protein level ([6]; 10 month): 70.0 ± 5.9 mg/24 h
- Blood urea nitrogen (BUN) levels ([6]; 10 month): 13.17 ± 3.70 mmol/L
- 24-hour urine protein level ([6]; baseline): Non-detected
- Blood urea nitrogen (BUN) levels ([6]; baseline): 4.97 ± 0.67 mmol/L
- average 24-hour urine protein level compared with the negative control group [6, 7]: lower
- average BUN level compared with control group [6, 7]: lower
- life span of Han:SPRD rats ([6]; at suitable dose, FIG. 1): prolong the life span
- change in body weight ([6]; rat, in vivo): no statistically significant change
- poisonous and side effects ([6]; rat, in vivo): without any obvious poisonous and side effects
- serum ALT ([6]; rat, in vivo): within the normal range
- serum AST ([6]; rat, in vivo): within the normal range
- serum lipids ([6]; rat, in vivo): within the normal range
- average survival time ([6]; treatment group, long-term, 2 rats still alive): ≥ 451.1 days
- IC50 [4]: 80.6 µM

SMILES: Cc1ccc(OC(C)(Cc2ccc(Oc3cc(N4CCN(Cc5ccccc5)CC4)nc(N)n3)cc2)C(=O)O)cc1 (centres unmarked) [Compound 31, 3-{4-[2-Amino-6-(4-benzyl-piperazin-1-yl)-pyrimidin-4-yloxy]-phenyl}-2-methyl-2-p-tolyloxy-propionic acid]
- IC50 [1]: 29.3 µM
- EC50 [5]: 3.8 µM
- IC50 [2]: 40.8 µM
- IC50 [3]: 35.3 µM
- IC50 [4]: 45.5 µM

SMILES: CC(Cc1ccc(Oc2cc(N3CCN(Cc4cccc5ccccc45)CC3)nc(N)n2)cc1)(Oc1ccccc1)C(=O)O (centres unmarked) [Compound 6, 3-{4-[2-Amino-6-(4-(naphthalen-1-ylmethyl)-piperazin-1-yl)-pyrimidin-4-yloxy]-phenyl}-2-methyl-2-phenoxy-propionic acid]
- IC50 [1]: 42.2 µM
- EC50 [5]: 3.39 µM
- IC50 [2]: 36.3 µM
- IC50 [3]: 49.8 µM
- IC50 [4]: 24.8 µM

SMILES: CC(Cc1ccc(Oc2cc(N3CCN(c4ncccn4)CC3)nc(N)n2)cc1)(Oc1ccccc1)C(=O)O (centres unmarked) [Compound 20, 3-{4-[2-Amino-6-(4-pyrimidin-2-yl-piperazin-1-yl)-pyrimidin-4-yloxy]-phenyl}-2-methyl-2-phenoxy-propionic acid]
- IC50 [1]: 35.7 µM
- EC50 [5]: 5.89 µM
- IC50 [2]: 20.1 µM
- IC50 [3]: 29.1 µM
- IC50 [4]: 32.6 µM
